Results as given in patent publication US20170107185A1, “SUBSTITUTED [1,2,4]TRIAZOLE AND IMIDAZOLE COMPOUNDS AS FUNGICIDES” (BASF SE, priority 2014, published 2017).

Test system: Botrytis cinerea
Experiment: M1 Activity against the grey mold Botrytis cinerea in the microtiterplate test (Botrci)
Type: cell-based
Conditions: 31 ppm, 405 nm, 7 days after inoculation; compound-free control 100%

Compound	growth (relative growth in % of the pathogen) [%]
C=CCCC(O)(Cn1cncn1)c1ccc(-c2ccccc2)cc1Cl (stereo not shown) [Compound I-9]	0
CC(O)(Cn1cncn1)c1ccc(-c2ccccc2)cc1Cl (stereo not shown) [Compound I-8]	0
CCC(O)(Cn1cncn1)c1ccc(-c2ccccc2)cc1Cl (stereo not shown) [Compound I-13]	0
CC(F)(F)C(O)(Cn1cncn1)c1ccc(-c2ccccc2)cc1Cl (stereo not shown) [Compound I-14]	0
OC(Cn1cncn1)(c1ccc(-c2ccccc2)cc1Cl)C1CC1 (stereo not shown) [Compound I-1]	0
CC(C)(C)C(O)(Cn1cncn1)c1ccc(-c2ccccc2)cc1Cl (stereo not shown) [Compound I-7]	0
CC#CC(O)(Cn1cncn1)c1ccc(-c2ccccc2)cc1Cl (stereo not shown) [Compound I-10]	0
